Test results from patent US20230416262A1, “TRPML MODULATORS” (Casma Therapeutics, Inc., priority 2020, published 2023).

System: TFEB
Test: TFEB nuclear translocation assay
Type: cell-based
Conditions: Homo sapiens; HeLa wt or HeLa TRPML1 KO cells, treated for 2 hrs; ratio of nuclear to ring-region TFEB intensity
Experimental: For the TFEB nuclear translocation assay, HeLa wt or HeLa TRPML1 KO cells were plated at 2700 cells/well into black-walled, 384-well Cell carrier Ultra tissue culture treated plates in complete media and incubated overnight. The next day, cells are treated for 2 hrs with compounds and incubated at 37° C. Cells were then fixed for 30 minutes at room temperature in 4% final PFA and washed five times with 90 μL PBS. PBS is aspirated from the wells and the cells are blocked with 7.5 μL blocking buffer (1.1 PBS/Odyssey block buffer containing 0.1% triton x-100 and 1% goat serum). After 30-60 minutes of block, 7.5 μL of primary anti-TFEB (rabbit) antibody is added for a final dilution of 1:200 antibody in 15 μL blocking buffer. Plates are incubated overnight at 4° C. The following day, plates are washed again into PBS, 90 μL with 5 washes, all PBS is aspirated from the wells and the cells are incubated for 1 hr in 1:1000 goat-anti rabbit Alexa 488 secondary antibody, also containing 10 μg/mL Hoechst 33342. After the 1 hr RT incubation, plates are washed a final time into PBS, sealed with foil and imaged with an automated epifluorescence microscopy (PerkinElmer Operetta CLS). Four different fields were imaged per well using ×20 magnification for DAPI and FITC filter sets. Images were quantified using PerkinElmer Harmony software, briefly: apply flatfield correction (basic/advanced) for input images. Use the Find Nuclei building block with channel set at Hoechst to find the nuclei. Use the Find cytoplasm building block with channel set to Alexa 488 to find the cytoplasm. Use select cell region with Channel set at Alexa 488 and region of interest as Nuclei and define outer border at 0 μm and inner at 45 μm to cover complete nuclei. Use select cell region with Channel set at Alexa 488 and region of interest as ring region and define outer border at −5 μm and inner at 0 μm to define a ring around the nucleus. Use the find calculate intensity parameter to calculate intensity of the nuclear region and the ring region. Define results as Number of nuclei and ratio of A/B where A is Intensity of Nuclei and B is intensity of the ring region.

| Structure (SMILES) | EC50 |
| --- | --- |
| O=S(=O)(c1cnn(C2CCC2)c1)N1CC2(CCCC2)c2ccccc21 [Compound I-17, 1′-[(1-cyclobutyl-1H-pyrazol-4-yl)sulfonyl]-1′,2′-dihydrospiro[cyclopentane-1,3′-indole]] | ≥ 10 µM |
| CC(CS(=O)(=O)N1CC2(CCCC2)c2ccccc21)c1ccccc1 (stereo not shown) [Compound I-117, 1′-(2-phenylpropanesulfonyl)-1′,2′-dihydrospiro[cyclopentane-1,3′-indole]] | ≥ 10 µM |
| O=S(=O)(c1ccc(Br)cc1)N1CC2(CCCC2)c2ccccc21 [Compound I-32, 1′-(4-bromobenzenesulfonyl)-1′,2′-dihydrospiro[cyclopentane-1,3′-indole]] | ≥ 10 µM |
| O=S(=O)(c1ccc2c(c1)CCOC2)N1CC2(CCCC2)c2ccccc21 [Compound I-59, 1′-(3,4-dihydro-1H-2-benzopyran-6-sulfonyl)-1′,2′-dihydrospiro[cyclopentane-1,3′-indole]] | ≥ 10 µM |
| CC(c1ccc(S(=O)(=O)N(C)C)cc1)N1CC2(CCCCC2)c2ccccc21 (stereo not shown) [Compound I-150, 4-(1-{1′,2′-dihydrospiro[cyclohexane-1,3′-indol]-1′-yl}ethyl)-N,N-dimethylbenzene-1-sulfonamide] | ≥ 10 µM |
| CN(C)S(=O)(=O)c1ccc(S(=O)(=O)N2CC3(CCCC3)c3cccnc32)cc1 [Compound I-71, 4-({1′,2′-dihydrospiro[cyclopentane-1,3′-pyrrolo[2,3-b]pyridin]-1′-yl}sulfonyl)-N,N-dimethylbenzene-1-sulfonamide] | ≥ 10 µM |
| O=S(=O)(c1ccc2c(c1)COC2)N1CC2(CCCC2)c2ccccc21 [Compound I-36, 1′-(1,3-dihydro-2-benzofuran-5-sulfonyl)-1′,2′-dihydrospiro[cyclopentane-1,3′-indole]] | ≥ 10 µM |
| CN1Cc2cc(S(=O)(=O)N3CC4(CCCC4)c4ccccc43)ccc2OC1=O [Compound I-6, 6-({1′,2′-dihydrospiro[cyclopentane-1,3′-indol]-1′-yl}sulfonyl)-3-methyl-3,4-dihydro-2H-1,3-benzoxazin-2-one] | ≥ 10 µM |
| O=S(=O)(c1ccc(OC(F)F)c(F)c1)N1CC2(CCCC2)c2ccccc21 [Compound I-23, 1′-[4-(difluoromethoxy)-3-fluorobenzenesulfonyl]-1′,2′-dihydrospiro[cyclopentane-1,3′-indole]] | ≥ 10 µM |
| O=S(=O)(c1ccc(C2CC2)s1)N1CC2(CCCC2)c2ccccc21 [Compound I-33, 1′-[(5-cyclopropylthiophen-2-yl)sulfonyl]-1′,2′-dihydrospiro[cyclopentane-1,3′-indole]] | ≥ 10 µM |
| COC(=O)C(C)(C)c1ccc(S(=O)(=O)N2CC3(CCCC3)c3ccccc32)cc1 [Compound I-53, methyl 2-[4-({1′,2′-dihydrospiro[cyclopentane-1,3′-indol]-1′-yl}sulfonyl)phenyl]-2-methylpropanoate] | ≥ 10 µM |
| O=S(=O)(c1ccc(C(F)F)cc1)N1CC2(CCCC2)c2ccccc21 [Compound I-28, 1′-[4-(difluoromethyl)benzenesulfonyl]-1′,2′-dihydrospiro[cyclopentane-1,3′-indole]] | ≥ 10 µM |

Now from value to compound:

| EC50 | Structure (SMILES) |
| --- | --- |
| 2.01 to 8 µM | O=C(OCc1ccccc1)N1CCC2(C1)CN(S(=O)(=O)Cc1ccccc1)c1ccccc12 (stereo not shown) [Compound I-115, benzyl 1-phenylmethanesulfonyl-1,2-dihydrospiro[indole-3,3′-pyrrolidine]-1′-carboxylate] |
| ≥ 10 µM | N=S(=O)(c1ccc(S(=O)(=O)N2CC3(CCCCC3)c3ccccc32)cc1)C1CC1 (stereo not shown) [Compound I-151, 1′-((4-(cyclopropanesulfonimidoyl)phenyl)sulfonyl)spiro[cyclohexane-1,3′-indoline]] |
| ≥ 10 µM | O=S(=O)(c1cnn(C2CCOCC2)c1)N1CC2(CCCC2)c2ccccc21 [Compound I-19] |
| 2.01 to 8 µM | CN(C)S(=O)(=O)c1ccc(S(=O)(=O)N2CC3(CCC(O)CC3)c3ccccc32)cc1 (stereo not shown) [Compound I-72, 4-({4-hydroxy-1′,2′-dihydrospiro[cyclohexane-1,3′-indol]-1′-yl}sulfonyl)-N,N-dimethylbenzene-1-sulfonamide] |
| ≥ 10 µM | O=S(=O)(c1ccn(C2CC2(F)F)n1)N1CC2(CCCC2)c2ccccc21 (stereo not shown) [Compound I-43, 1′-{[1-(2,2-difluorocyclopropyl)-1H-pyrazol-3-yl]sulfonyl}-1′,2′-dihydrospiro[cyclopentane-1,3′-indole]] |
| ≥ 10 µM | COC(C)(C)c1ccc(S(=O)(=O)N2CC3(CCCC3)c3ccccc32)cc1 [Compound I-56, 1′-[4-(2-methoxypropan-2-yl)benzenesulfonyl]-1′,2′-dihydrospiro[cyclopentane-1,3′-indole]] |
| ≥ 10 µM | CC(C)(O)c1cccc(S(=O)(=O)N2CC3(CCCC3)c3ccccc32)c1 [Compound I-61, 2-[3-({1′,2′-dihydrospiro[cyclopentane-1,3′-indol]-1′-yl}sulfonyl)phenyl]propan-2-ol] |
| ≥ 10 µM | O=S(=O)(c1cncc(C(F)F)c1)N1CC2(CCCC2)c2ccccc21 [Compound I-20, 1′-{[S-(difluoromethyl)pyridin-3-yl]sulfonyl}-1′,2′-dihydrospiro[cyclopentane-1,3′-indole]] |
| ≤ 2 µM | CN(C)S(=O)(=O)c1ccc(S(=O)(=O)N2CC3(CCCCC3)n3nc(C(F)(F)F)cc32)cc1 [Compound I-153, N,N-dimethyl-4-{[6′-(trifluoromethyl)-1′,2′-dihydrospiro[cyclohexane-1,3′-pyrazolo[1,5-a]imidazol]-1′-yl]sulfonyl}benzene-1-sulfonamide] |
| 8.01 to 9.99 µM | Cc1ccc(S(=O)(=O)N2CC3(CCCC3)c3ccccc32)cc1F [Compound I-15, 1′-(3-fluoro-4-methylbenzenesulfonyl)-1′,2′-dihydrospiro[cyclopentane-1,3′-indole]] |
| 2.01 to 8 µM | O=S(=O)(Cc1cccc(F)c1)N1CC2(CCCC2)c2ccccc21 [Compound I-25, 1′-[(3-fluorophenyl)methanesulfonyl]-1′,2′-dihydrospiro[cyclopentane-1,3′-indole]] |
| 2.01 to 8 µM | O=S(=O)(C1=Cc2ccccc2CC1)N1CC2(CCCC2)c2ccccc21 [Compound I-42, 1′-(3,4-dihydronaphthalene-2-sulfonyl)-1′,2′-dihydrospiro[cyclopentane-1,3′-indole]] |
| 2.01 to 8 µM | O=S(=O)(c1cnn(C2CCCCC2)c1)N1CC2(CCCC2)c2ccccc21 [Compound I-18, 1′-[(1-cyclohexyl-1H-pyrazol-4-y1)sulfonyl]-1′,2′-dihydrospiro[cyclopentane-1,3′indole]] |
| 2.01 to 8 µM | CS(=O)(=O)c1ccc(S(=O)(=O)N2CC3(CCCC3)c3ccccc32)cc1 [Compound I-9, 1′-(4-methanesulfonylbenzenesulfonyl)-1′,2′-dihydrospiro[cyclopentane-1,3′-indole]] |
| 2.01 to 8 µM | Cc1cc2n(n1)C1(CCCCC1)CN2S(=O)(=O)c1ccc(S(=O)(=O)N(C)C)cc1 [Compound I-123, N,N-dimethyl-4-({6′-methyl-1′,2′-dihydrospiro[cyclohexane-1,3′-pyrazolo[1,5-a]imidazol]-1′-yl}sulfonyl)benzene-1-sulfonamide] |
| ≤ 2 µM | CN(C)S(=O)(=O)c1ccc(S(=O)(=O)N2CC3(CCCCC3)n3nc(C4CC4)cc32)cc1 [Compound I-257, 4-({6′-cyclopropyl-1′,2′-dihydrospiro[cyclohexane-1,3′-pyrazolo[1,5-a]imidazol]-1′-yl}sulfony1)-N,N-dimethylbenzene-1-sulfonamide] |
